PubChem BioAssay (NCI)
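Cultured in 96-well plates, cells were exposed to test compound for 48 hours across five concentrations. Here, GI50 denotes the concentration required for 50% inhibition of growth. TGI is the concentration that stops growth completely.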

What was measured:
Assay in all cases: NCI tumour cell line growth inhibition, 48 h
HOP-92 NSCLC = tested on: HOP-92 NSCLC
K-562 leukemia = tested on: K-562 leukemia
M14 melanoma = tested on: M14 melanoma
MOLT-4 leukemia = tested on: MOLT-4 leukemia
RPMI-8226 leukemia = tested on: RPMI-8226 leukemia
RXF 393 renal = tested on: RXF 393 renal
SF-268 CNS = tested on: SF-268 CNS
SNB-19 CNS = tested on: SNB-19 CNS
UACC-257 melanoma = tested on: UACC-257 melanoma
UACC-62 melanoma = tested on: UACC-62 melanoma

Structure (SMILES)	GI50 (HOP-92 NSCLC)	TGI (HOP-92 NSCLC)	GI50 (K-562 leukemia)	TGI (K-562 leukemia)	GI50 (M14 melanoma)	TGI (M14 melanoma)	GI50 (MOLT-4 leukemia)	GI50 (RPMI-8226 leukemia)	TGI (RPMI-8226 leukemia)	GI50 (RXF 393 renal)	TGI (RXF 393 renal)	GI50 (SF-268 CNS)	TGI (SF-268 CNS)	GI50 (SNB-19 CNS)	TGI (SNB-19 CNS)	GI50 (UACC-257 melanoma)	TGI (UACC-257 melanoma)	GI50 (UACC-62 melanoma)	TGI (UACC-62 melanoma)	TGI (MOLT-4 leukemia)
CC1(C)C2CCC13C(=O)C1OC3(C2)C2C(=O)c3c(O)cccc3C(=O)C12 (centres undefined)	0.566 µM	1.89 µM	0.703 µM	1.79 µM	3.24 µM	12.2 µM	0.111 µM	0.177 µM	0.441 µM	1.56 µM	3.5 µM	3.06 µM	15.3 µM	10.6 µM	23.9 µM	0.792 µM	2.43 µM	0.2 µM	0.403 µM	–
Cc1n(Cc2ccc3ccccc3c2)c(Cl)c(Cl)[n+]1Cc1ccc2ccccc2c1	1.17 µM	2.94 µM	1.9 µM	7.3 µM	1.79 µM	3.99 µM	2.31 µM	1.05 µM	3.12 µM	1.66 µM	3.16 µM	1.67 µM	3.29 µM	1.57 µM	2.96 µM	1.81 µM	4.21 µM	1.38 µM	2.74 µM	5.58 µM
O=C(O)Cn1ccnc1[N+](=O)[O-]	–	> 100 µM	–	> 100 µM	–	> 100 µM	–	–	> 100 µM	–	> 100 µM	–	> 100 µM	–	> 100 µM	–	> 100 µM	–	> 100 µM	> 100 µM
COC(=O)c1cc2c3c(ccc2[nH]1)N(C(=O)c1cc2c4c(ccc2[nH]1)N(C(=O)c1cc2c5c(ccc2[nH]1)N(C(N)=O)CC5)CC4)CC3	–	7.31 µM	–	> 100 µM	–	> 21.3 µM	–	–	> 100 µM	–	12.5 µM	–	> 100 µM	–	12.6 µM	–	> 100 µM	–	> 19.8 µM	> 100 µM
Cn1cnc([N+](=O)[O-])c1Sc1nc(N)nc2nc[nH]c12	3.1 µM	> 100 µM	4.2 µM	> 100 µM	1.28 µM	> 100 µM	3.55 µM	3.52 µM	> 94 µM	5.09 µM	> 91.7 µM	2.39 µM	> 100 µM	> 100 µM	> 100 µM	8.38 µM	> 100 µM	2.96 µM	25.7 µM	> 100 µM
COc1ccc(-c2cc(/C=C/C(=O)c3cc(OC)c(OC)c(OC)c3)[nH]n2)cc1OC	1.61 µM	5.48 µM	0.731 µM	9.71 µM	1.8 µM	3.69 µM	1.81 µM	0.298 µM	1.66 µM	1.53 µM	3.16 µM	1.68 µM	3.9 µM	1.8 µM	5.32 µM	1.79 µM	3.8 µM	1.79 µM	3.88 µM	8.86 µM
NS(=O)(=O)c1ccc(NC(=O)c2cccn3c(=O)c4ccccc4nc23)cc1	–	> 100 µM	–	> 100 µM	–	> 100 µM	–	–	> 100 µM	–	> 100 µM	–	> 100 µM	–	> 100 µM	–	> 100 µM	–	> 100 µM	> 100 µM
O=C(Cc1ccc(/C=C/C(=O)c2ncc[nH]2)cc1)Nc1ccc(C(F)(F)F)cc1	4.89 µM	11.1 µM	1.24 µM	> 33.3 µM	2.58 µM	9.25 µM	2.29 µM	0.78 µM	1.83 µM	3.75 µM	8.83 µM	3.05 µM	9.53 µM	2.79 µM	7.75 µM	7.2 µM	16.1 µM	4.47 µM	9.44 µM	28.5 µM
CC(=O)OCCC(O[Si](c1ccccc1)(c1ccccc1)C(C)(C)C)C(C)(C)O (centres undefined)	–	65.1 µM	–	> 100 µM	–	> 100 µM	–	–	63 µM	–	36.6 µM	–	> 100 µM	–	> 100 µM	–	> 100 µM	–	> 100 µM	63 µM
O=C(CCN1CCCC1)Nc1ccc2c(Nc3ccccc3)c3ccccc3nc2c1	0.432 µM	2.26 µM	0.235 µM	1.2 µM	1.13 µM	2.69 µM	0.0432 µM	0.48 µM	1.65 µM	0.981 µM	2.65 µM	0.677 µM	2.3 µM	0.432 µM	2.92 µM	1.75 µM	3.83 µM	1.12 µM	2.55 µM	1.56 µM
CCN(CC)CCOc1ccc(/C=C2\CC3C4CC=C5C[C@@H](OC(C)=O)CC[C@]5(C)C4CC[C@]3(C)C2=O)cc1OC (some centres undefined)	13.3 µM	37.7 µM	1.29 µM	23.6 µM	2.09 µM	4.36 µM	1.45 µM	1.71 µM	4.63 µM	2.58 µM	7.77 µM	4.14 µM	18.4 µM	47.1 µM	> 100 µM	6.97 µM	31.6 µM	2.2 µM	4.09 µM	> 100 µM
Cn1cc(CO)c2ccccc21	33.9 µM	> 100 µM	17.5 µM	> 100 µM	31.6 µM	> 100 µM	40 µM	99.9 µM	> 100 µM	49.7 µM	> 100 µM	60.6 µM	> 100 µM	> 100 µM	> 100 µM	> 100 µM	> 100 µM	54.9 µM	> 100 µM	> 100 µM
C1=C2CNCC3=Cc4ccc5ccccc5c4OC23Oc2c1ccc1ccccc21	2.86 µM	17.1 µM	2.95 µM	21.2 µM	2.17 µM	5.08 µM	2.86 µM	5.44 µM	65.3 µM	1.79 µM	6.16 µM	5.64 µM	22.1 µM	6.95 µM	29.3 µM	12.6 µM	38.7 µM	5.05 µM	21.7 µM	10.6 µM
COc1ccccc1/C=C\C(=O)c1ccccc1	11.9 µM	31.5 µM	2.57 µM	13.9 µM	12.5 µM	25.6 µM	2.9 µM	2.8 µM	24.7 µM	13 µM	27.4 µM	13.1 µM	27 µM	4.38 µM	16.7 µM	12.9 µM	26.2 µM	5.57 µM	18.7 µM	10.2 µM
O=C(O)C1C(C(=O)O)C2(Cl)C(Cl)=C(Cl)C1(Cl)C2(Cl)Cl.[Cd] (centres undefined)	19.2 µM	34.8 µM	16.3 µM	51.8 µM	19.2 µM	38.9 µM	22 µM	6.64 µM	48.4 µM	13.7 µM	30.5 µM	18.1 µM	36.8 µM	40 µM	> 100 µM	15.5 µM	30.7 µM	3.84 µM	15.4 µM	60.9 µM
COc1ccc(-c2nc3c(c(=O)n2C(C)=O)C(c2ccc(Cl)cc2)c2sc4c(Cl)cccc4c2O3)cc1 (centres undefined)	1.33 µM	4.58 µM	0.26 µM	2.7 µM	0.239 µM	0.973 µM	0.386 µM	0.529 µM	5.1 µM	0.235 µM	0.675 µM	0.68 µM	3.82 µM	0.413 µM	2.01 µM	0.776 µM	3.29 µM	0.298 µM	1.7 µM	2.64 µM
O=C(Nc1ccc(Cl)cc1)Nc1ccccc1CNc1nc(Nc2ccc(OCCN3CCCC3)cc2)ncc1Cl	0.985 µM	2.77 µM	1.16 µM	2.82 µM	0.832 µM	1.68 µM	1.19 µM	1.24 µM	3.19 µM	0.898 µM	1.76 µM	1.29 µM	4.04 µM	2.5 µM	11.6 µM	0.993 µM	2 µM	0.903 µM	1.78 µM	2.99 µM
CN(C)C(=O)SC1=C(c2c(Cl)cccc2Cl)C(=O)c2ccccc21	1.96 µM	8.31 µM	2.98 µM	14.8 µM	3.03 µM	7.79 µM	2.5 µM	2.2 µM	5.84 µM	4.18 µM	8.59 µM	8.9 µM	22.7 µM	15.8 µM	29.4 µM	5.16 µM	9.81 µM	3.85 µM	8.24 µM	7.06 µM
CN(C)CCCC1(c2ccc(F)cc2)OCc2cc(-c3cncc4ccccc34)ccc21 (centres undefined)	1.58 µM	8.81 µM	2.02 µM	5.17 µM	1.82 µM	3.77 µM	2.39 µM	2.51 µM	5.96 µM	2.51 µM	10.1 µM	3.15 µM	13.9 µM	2.35 µM	7.4 µM	2.02 µM	4 µM	2.24 µM	5.17 µM	6.7 µM
CCOCNc1ccc(N2C(=O)/C(=C/c3ccc(N(CC)CC)cc3)N=C2c2ccccc2)cc1	2.25 µM	12 µM	2.87 µM	> 100 µM	> 100 µM	> 100 µM	4.57 µM	2.83 µM	> 100 µM	4.23 µM	17.4 µM	7.73 µM	> 100 µM	7.57 µM	55.3 µM	> 100 µM	> 100 µM	3.93 µM	37.1 µM	> 100 µM
COc1ccc(C2NCCc3c2[nH]c2ccccc32)cc1 (centres undefined)	–	> 100 µM	–	> 100 µM	–	> 100 µM	–	–	> 100 µM	–	> 100 µM	–	> 100 µM	–	> 100 µM	–	> 100 µM	–	> 100 µM	> 100 µM
Fc1c[c-]c(-c2ccccn2)c(F)c1.[CH3-].[Pt+2].c1ccc(P(C[PH+](c2ccccc2)c2ccccc2)c2ccccc2)cc1	0.512 µM	1.34 µM	0.365 µM	6.95 µM	0.71 µM	2.31 µM	0.825 µM	0.262 µM	1.87 µM	0.702 µM	1.49 µM	0.86 µM	6.88 µM	0.403 µM	1.32 µM	0.696 µM	2.93 µM	0.545 µM	1.89 µM	5.81 µM
C=CC1=CC(C)C[C@]1(O)C(=O)OC (some centres undefined)	> 100 µM	–	> 100 µM	–	> 100 µM	–	> 100 µM	–	< 0.01 µM	> 100 µM	–	> 100 µM	–	> 100 µM	–	> 100 µM	–	> 100 µM	–	–
